From patent US9238020B2, “Compositions comprising enzyme-cleavable phenol-modified tapentadol prodrug” (priority 2010, dated 2016) come the findings set out here.

For data set [1], the system named is norepinephrine uptake into rat hypothalamus synaptosomes. In words: In vitro functional norepinephrine uptake assay. It is filed as biochemical. To be noted: rat hypothalamus synaptosomes. The protocol: The general procedure follows the protocol described by S. Perovic and W. E. G. Muller, 1995, Arzneim-Forsch. Drug Res. 45, 1145-1148. More specifically, the assays included each of the compounds indicated in Table 13 and rat hypothalamus synaptosomes incubated with 0.2 μCi/mL [^3H] norepinephrine. For a control reaction, protriptyline was used. The reaction mixtures were incubated at 37° C. for 20 min, and the reaction product of [^3H] norepinephrine incorporation into the synaptosomes was measured by scintillation counting. IC50 values (concentration causing a half-maximal inhibition of control specific activity) were determined by non-linear regression fit using Hill plot software.

Data set [2] in a line: Pharmacokinetics following PO administration to dogs. The data set is classed as in vivo, dog. The note with it: approximately equimole amounts. The procedure:
Purebred male young adult/adult beagles were fasted overnight. Compound TP-1 (which can be prepared as described in the examples herein) or tapentadol (which can be prepared as described in PCT patent application No. WO28012046A1) were administered in approximately equimole amounts in water via oral gavage followed immediately by flushing the gavage tube with 5 mL water prior to withdrawal. Blood was collected from each animal predose and following dose administration at 0.25, 0.5, 1, 2, 3, 4, 6, 8, 10, 12 and 24 hours postdose. Blood samples were centrifuged and 0.8 mL plasma transferred to fresh tubes containing 8 μl formic acid; samples were vortexed, then immediately placed in dry ice and stored in a −80° C. freezer until analysis by HPLC/MS.
Table 5 and FIG. 6 provide tapentadol exposure results for dogs administered Compound TP-1 or tapentadol. Results in Table 5 are reported for each group of four dogs as described in Example 11.

In data set [3] the target is human μ-opioid receptor (Homo sapiens, UniProt P35372). In words: In vitro human μ-opioid receptor binding assay ([3H]DAMGO, recombinant HEK-293 cells). Also noted: expressed in transfected cells; host or cells: HEK-293. The note with it: relative to tapentadol. The protocol: The general procedure follows the protocol described by J.-B. Wang, et al, 1994, FEBS Lett. 338, 217-222. More specifically, the assays included tapentadol or Compound TP-1 (which can be prepared as described in the examples herein) as well as recombinant HEK-293 cells expressing the human μ-opioid receptor on their cell surfaces, reference compound [d-Ala^2,N-Me-Phe^4,Gly^5−ol]-enkephalin (DAMGO), radioligand [^3H]DAMGO (0.5 nM) and non-specific ligand naloxone (10 uM). The reaction mixtures were incubated at 22° C. for 2 hr. The samples were then submitted to scintillation counting.
In these assays, the specific binding of a test compound to the receptor is defined as the difference between the total binding and the non-specific binding determined in the presence of an excess of unlabelled ligand. Results are expressed as a percent of control of specific binding and as a percent inhibition of control specific binding obtained in the presence of test compounds. The IC50 values (concentration of competing ligand required for 50% inhibition of [^3H]DAMGO binding), and Hill coefficients (nH) were determined by non-linear regression analysis of competition curves using Hill equation curve fitting.

Data set [4] concerns the target T1, trypsin from bovine pancreas (Bos taurus, UniProt P00760).
T1 construct: purchased Sigma-Aldrich T8003; host or cells: bovine pancreas
T1 sequence (P00760 24-246): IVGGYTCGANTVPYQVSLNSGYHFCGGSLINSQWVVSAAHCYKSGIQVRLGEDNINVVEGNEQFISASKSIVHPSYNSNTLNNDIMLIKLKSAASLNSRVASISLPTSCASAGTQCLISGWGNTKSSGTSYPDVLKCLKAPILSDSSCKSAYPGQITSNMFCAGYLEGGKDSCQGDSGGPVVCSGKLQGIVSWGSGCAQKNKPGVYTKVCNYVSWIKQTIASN
In words: In vitro trypsin conversion of prodrug to tapentadol and inhibition thereof by Compound 109. The note with it: 4815 BAEE U trypsin/mL. It is filed as biochemical. The protocol: (§1) Compound TP-1 was incubated with trypsin from bovine pancreas (Catalog No. T8003, Type I, ˜10,000 BAEE units/mg protein, Sigma-Aldrich). Specifically, the reactions included 0.761 nM of Compound TP-1•2HCl, 22.5 mM calcium chloride, 40 to 172 mM Tris pH 8 and 0.25% DMSO with the BAEE units of trypsin indicated in Table 4. The reactions were conducted at 37° C. for 24 hr. Samples were collected at specified time points, transferred into 0.5% formic acid in acetonitrile to stop trypsin activity and stored at less than −70° C. until analysis by LC-MS/MS.
(§2) Compound TP-1 was also incubated in the presence of 2 micromolar (μM) trypsin inhibitor Compound 109. In that case, Compound TP-1 was added 5 min after the other incubation components. Other reaction and sample treatment conditions were as described above.
(§3) Table 4 indicates the results of exposure of Compound TP-1 to trypsin in the absence or presence of trypsin inhibitor. The results are expressed as half-life of prodrug when exposed to trypsin (i.e., Prodrug trypsin half-life) in hours and rate of tapentadol (TP) formation in umol/h/BAEE U trypsin.
(§4) Compound TP-1, Compound TP-3, or Compound TP-4 (which can be prepared as described in the examples herein) were incubated in the absence or presence of Compound 109 as shown in Table 8. Incubations and analysis procedures were as described in Example 14.

For data set [5], the target named is T2, trypsin (Bos taurus, UniProt P00760).
T2 construct: purchased Sigma-Aldrich T8003; host or cells: bovine pancreas
T2 sequence (P00760 24-246): T1 sequence (P00760 24-246)
The description is as above. It is filed as biochemical, bovine. To be noted: bovine, trypsin from bovine pancreas, pH 8, with Compound 109 (trypsin inhibitor); Table 8; 4815 BAEE U trypsin/mL, Compound 109 40 μM; read-out: Pro-drug trypsin half-life, Average ± sd (converted). The procedure: as §1, §2, §3, §4

Data set [6] in a line: Pharmacokinetics of tapentadol release following PO administration of prodrugs or tapentadol to rats. The data set is classed as in vivo, rat. The protocol:
Saline solutions of Compound TP-1 (which can be prepared as described in the examples herein) were dosed as indicated in Table 1 via oral gavage into 4 jugular vein-cannulated male Sprague Dawley rats that had been fasted for 16-18 hr prior to oral dosing. At specified time points, blood samples were drawn, harvested for plasma via centrifugation at 5,400 rpm at 4° C. for 5 min, and 100 microliters (μl) plasma transferred from each sample into a fresh tube containing 2 μl of 50% formic acid. The tubes were vortexed for 5-10 seconds, immediately placed in dry ice and then stored in a −80° C. freezer until analysis by HPLC/MS.
Saline solutions of Compounds TP-1, TP-3, TP-4, (which can be prepared as described in the examples herein) or tapentadol were dosed in approximately equimole amounts as indicated in Table 6. Dose administration, sampling and analysis procedures were as described in Example 11.
Dosing, sampling and analysis procedures were as described in Example 11.

Structures are written as SMILES.

human μ-opioid receptor, sequence (P35372 whole entry): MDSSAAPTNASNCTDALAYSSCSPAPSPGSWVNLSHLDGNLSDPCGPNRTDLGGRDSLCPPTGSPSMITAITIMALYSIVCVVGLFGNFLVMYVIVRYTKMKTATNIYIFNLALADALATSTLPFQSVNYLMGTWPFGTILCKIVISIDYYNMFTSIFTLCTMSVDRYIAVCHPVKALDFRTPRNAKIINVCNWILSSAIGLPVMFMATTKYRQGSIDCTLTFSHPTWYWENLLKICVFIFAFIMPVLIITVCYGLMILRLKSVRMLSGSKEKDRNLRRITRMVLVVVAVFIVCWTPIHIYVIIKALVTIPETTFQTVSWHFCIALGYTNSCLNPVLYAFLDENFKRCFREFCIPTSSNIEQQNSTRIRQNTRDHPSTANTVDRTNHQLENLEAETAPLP

For `CC[C@@H](c1cccc(OC(=O)N(C)CCNC(=O)[C@H](CCCNC(=N)N)NC(=O)CC(=O)O)c1)[C@@H](C)CN(C)C` [Compound TP-1, N—[(S)-1-(2-{[3-((1R,2R)-3-dimethylamino-1-ethyl-2-methyl-propyl)-phenoxycarbonyl]-methyl-amino}-ethylcarbamoyl)-4-guanidino-butyl]-malonamic acid], in data set [1], the “activity as a norepinephrine reuptake inhibitor” value is listed as “no detectable activity”. Further, the “tapentadol PK profile compared to administration of tapentadol” value in data set [2] was “delayed Tmax and increased AUC”. For the same molecule, the “affinity for the μ-opioid receptor, fold less than that of tapentadol” value in data set [3] was “at least 200 fold”. Moreover, the “Rate of TP formation, Average ± sd” value is 0.0302 ± 0.002 umol/h/BAEE U in data set [4] (Table 4, Compound 109 0 μM); 0.0243 ± 0.0008 umol/h/BAEE U in data set [4] (Table 4, Compound 109 2 μM); 0.0302 ± 0.002 umol/h/BAEE U in data set [4] (Table 8, Compound 109 0 μM); 0.0243 ± 0.0008 umol/h/BAEE U in data set [4] (Table 8, Compound 109 2 μM). The half-life at 0.761 nM in data set [5] is 3.94 ± 0.18 h. Also, the “plasma concentrations of tapentadol versus prodrug dose” value in data set [6] (5 to 50 mg/kg) is on record as “increase proportionally”. In data set [6] (approximately equimole amounts), the “tapentadol plasma concentration profile compared to administration of tapentadol” value is “suppressed Cmax and delayed Tmax”.

The term half-life denotes how long it takes for the measured level to halve.
